Laboratory results reported in the supplement of paper PMC13207355.

Key:
Conditions in all cases: exposure time: 72 h
E13 [1] = patient-derived glioblastoma stem cells of classical subtype; assay: surviving fraction (nuclei count normalised to DMSO); higher = more cells surviving (less toxic)
E21 [2] = patient-derived glioblastoma stem cells of mesenchymal subtype; assay: as above
E28 [3] = patient-derived glioblastoma stem cells of classical subtype; assay: as above
E31 [4] = patient-derived glioblastoma stem cells of proneural subtype; assay: as above
E34 [5] = patient-derived glioblastoma stem cells of proneural subtype; assay: as above
E57 [6] = patient-derived glioblastoma stem cells of mesenchymal subtype; assay: as above
FT3469 [7] = normal neural stem cell line; assay: as above
E13 [8] = assay: phenotypic distance (Euclidean, principal components) from DMSO controls (arbitrary units); higher = stronger morphological change
E21 [9] = assay: as above
E28 [10] = assay: as above
E31 [11] = assay: as above
E34 [12] = assay: as above
E57 [13] = assay: as above
FT3469 [14] = assay: as above
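Throughout, for phenotypic distance (Euclidean, principal components) from DMSO controls: cell Painting imaging in 384-well plates, CellProfiler features reduced to at least 20 principal components, Euclidean distance versus same-plate DMSO vehicle wells (0.1% v/v), median over six images per well.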
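Throughout, for surviving fraction (nuclei count normalised to DMSO): nuclei counted by high-content imaging of Hoechst-stained cells in laminin-coated 384-well plates, relative to 0.1% DMSO vehicle wells, with staurosporine as cell-death control.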

CCc1c2c(nc3ccc(OC(=O)N4CCC(N5CCCCC5)CC4)cc13)-c1cc3c(c(=O)n1C2)COC(=O)[C@]3(O)CC [Irinotecan]
Conditions | phenotypic distance | surviving fraction
E13 [1], 4.1 nM | – | 0.966
E13 [1], 12.3 nM | – | 1.03
E13 [1], 37 nM | – | 1
E13 [1], 111.1 nM | – | 0.975
E13 [1], 333.3 nM | – | 0.974
E13 [1], 1000 nM | – | 0.784
E13 [1], 3000 nM | – | 0.418
E13 [8], 4.1 nM | 0.394 | –
E13 [8], 12.3 nM | 1.01 | –
E13 [8], 37 nM | 0.761 | –
E13 [8], 111.1 nM | 0.76 | –
E13 [8], 333.3 nM | 1.35 | –
E13 [8], 1000 nM | 2.55 | –
E13 [8], 3000 nM | 5.65 | –
E21 [2], 4.1 nM | – | 1.03
E21 [2], 12.3 nM | – | 1.08
E21 [2], 37 nM | – | 0.918
E21 [2], 111.1 nM | – | 1.03
E21 [2], 333.3 nM | – | 0.883
E21 [2], 1000 nM | – | 0.589
E21 [2], 3000 nM | – | 0.124
E21 [9], 4.1 nM | 0.618 | –
E21 [9], 12.3 nM | 1.21 | –
E21 [9], 37 nM | 0.691 | –
E21 [9], 111.1 nM | 1.31 | –
E21 [9], 333.3 nM | 1.88 | –
E21 [9], 1000 nM | 3.97 | –
E21 [9], 3000 nM | 5.51 | –
E28 [3], 4.1 nM | – | 1.21
E28 [3], 12.3 nM | – | 1.07
E28 [3], 37 nM | – | 1.07
E28 [3], 111.1 nM | – | 0.969
E28 [3], 333.3 nM | – | 0.765
E28 [3], 1000 nM | – | 0.541
E28 [3], 3000 nM | – | 0.302
E28 [10], 4.1 nM | 0.5 | –
E28 [10], 12.3 nM | 0.951 | –
E28 [10], 37 nM | 0.608 | –
E28 [10], 111.1 nM | 0.966 | –
E28 [10], 333.3 nM | 1.51 | –
E28 [10], 1000 nM | 3.61 | –
E28 [10], 3000 nM | 4.49 | –
E31 [4], 4.1 nM | – | 0.946
E31 [4], 12.3 nM | – | 1.1
E31 [4], 37 nM | – | 0.899
E31 [4], 111.1 nM | – | 0.922
E31 [4], 333.3 nM | – | 0.946
E31 [4], 1000 nM | – | 0.579
E31 [4], 3000 nM | – | 0.144
E31 [11], 4.1 nM | 0.6 | –
E31 [11], 12.3 nM | 0.75 | –
E31 [11], 37 nM | 0.721 | –
E31 [11], 111.1 nM | 0.569 | –
E31 [11], 333.3 nM | 1.07 | –
E31 [11], 1000 nM | 1.39 | –
E31 [11], 3000 nM | 3.35 | –
E34 [5], 4.1 nM | – | 1.01
E34 [5], 12.3 nM | – | 0.922
E34 [5], 37 nM | – | 0.796
E34 [5], 111.1 nM | – | 0.981
E34 [5], 333.3 nM | – | 0.942
E34 [5], 1000 nM | – | 0.675
E34 [5], 3000 nM | – | 0.542
E34 [12], 4.1 nM | 0.814 | –
E34 [12], 12.3 nM | 0.597 | –
E34 [12], 37 nM | 0.83 | –
E34 [12], 111.1 nM | 0.866 | –
E34 [12], 333.3 nM | 2.22 | –
E34 [12], 1000 nM | 4.25 | –
E34 [12], 3000 nM | 3.72 | –
E57 [6], 4.1 nM | – | 1.08
E57 [6], 12.3 nM | – | 1.02
E57 [6], 37 nM | – | 0.935
E57 [6], 111.1 nM | – | 0.931
E57 [6], 333.3 nM | – | 1.01
E57 [6], 1000 nM | – | 0.658
E57 [6], 3000 nM | – | 0.189
E57 [13], 4.1 nM | 0.685 | –
E57 [13], 12.3 nM | 0.929 | –
E57 [13], 37 nM | 0.554 | –
E57 [13], 111.1 nM | 0.781 | –
E57 [13], 333.3 nM | 1.52 | –
E57 [13], 1000 nM | 3.59 | –
E57 [13], 3000 nM | 7.66 | –
FT3469 [7], 4.1 nM | – | 1.03
FT3469 [7], 12.3 nM | – | 0.94
FT3469 [7], 37 nM | – | 0.96
FT3469 [7], 111.1 nM | – | 0.904
FT3469 [7], 333.3 nM | – | 0.739
FT3469 [7], 1000 nM | – | 0.748
FT3469 [7], 3000 nM | – | 0.648
FT3469 [14], 4.1 nM | 0.701 | –
FT3469 [14], 12.3 nM | 1.1 | –
FT3469 [14], 37 nM | 1.06 | –
FT3469 [14], 111.1 nM | 1.22 | –
FT3469 [14], 333.3 nM | 1.84 | –
FT3469 [14], 1000 nM | 2.27 | –
FT3469 [14], 3000 nM | 2.46 | –
